Tested on: 454973-116-R2-J3-PDC spheroids, viability, % test/control
Test: Anticancer human tumor 454973-116-R2-J3-PDC patient-derived pancreatic carcinoma cell line growth inhibition [GQUAD]
Conditions: spheroids with HUVEC and MSC; for IC50: curve of first compound; for viability, T/C: stronger effect = lower value
How it was run: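 Multi-cell-type spheroids of tumor cells with HUVEC and mesenchymal stem cells, treated with drug combinations. Concentrations descend in half-log steps from near clinical Cmax, or from 10 microM where Cmax is unknown; viability read-out.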

[1] = second compound 0.0316 µM, first compound 0.0316 µM
[2] = second compound 0.0316 µM, first compound 0.316 µM
[3] = second compound 0.1 µM, first compound 0.0316 µM
[4] = second compound 0.1 µM, first compound 0.316 µM
[5] = second compound 0.316 µM, first compound 0.0316 µM
[6] = second compound 0.316 µM, first compound 0.316 µM
[7] = second compound 1 µM, first compound 0.0316 µM
[8] = second compound 1 µM, first compound 0.316 µM
[9] = second compound 3.16 µM, first compound 0.0316 µM
[10] = second compound 3.16 µM, first compound 0.316 µM
[11] = second compound 10 µM, first compound 0.0316 µM
[12] = second compound 10 µM, first compound 0.316 µM
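Note: spheroids exposed to compounds for seven days.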
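Throughout, for viability, T/C: 100% = DMSO vehicle control viability.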

CC[C@@]1(O)C(=O)OCc2c1cc1n(c2=O)Cc2cc3c(CN(C)C)c(O)ccc3nc2-1 + CN(C)c1ccc(Nc2c3ccc(NC(=O)CCN4CCCC4)cc3nc3cc(NC(=O)CCN4CCCC4)ccc23)cc1 gave an IC50 (second compound 0.0316 µM) of 45.3 nM, an IC50 (second compound 0.1 µM) of 39.5 nM and an IC50 (second compound 0.316 µM) of 30.3 nM. The IC50 (second compound 1 µM) was 32.7 nM, the IC50 (second compound 3.16 µM) was 29.9 nM and the IC50 (second compound 10 µM) was 28.8 nM. It also gave a viability, T/C (second compound 0.0316 µM, first compound 0.000999 µM) of 97.5%, a viability, T/C (second compound 0.0316 µM, first compound 0.00316 µM) of 97.7% and a viability, T/C (second compound 0.0316 µM, first compound 0.00999 µM) of 99.5%. For the same molecule, the viability, T/C [1] was 64%, the viability, T/C (second compound 0.0316 µM, first compound 0.0999 µM) was 18.2% and the viability, T/C [2] was 20.1%. The viability, T/C (second compound 0.1 µM, first compound 0.000999 µM) was 111%, the viability, T/C (second compound 0.1 µM, first compound 0.00316 µM) was 102% and the viability, T/C (second compound 0.1 µM, first compound 0.00999 µM) was 88.4%. For the same molecule, the viability, T/C [3] was 60.6%, the viability, T/C (second compound 0.1 µM, first compound 0.0999 µM) was 18.2% and the viability, T/C [4] was 20.5%. The viability, T/C (second compound 0.316 µM, first compound 0.000999 µM) was 101%, the viability, T/C (second compound 0.316 µM, first compound 0.00316 µM) was 111% and the viability, T/C (second compound 0.316 µM, first compound 0.00999 µM) was 82.1%. It also gave a viability, T/C [5] of 51.3%, a viability, T/C (second compound 0.316 µM, first compound 0.0999 µM) of 23.4% and a viability, T/C [6] of 23%. It also gave a viability, T/C (second compound 1 µM, first compound 0.000999 µM) of 99.3%, a viability, T/C (second compound 1 µM, first compound 0.00316 µM) of 89.8% and a viability, T/C (second compound 1 µM, first compound 0.00999 µM) of 87.1%. For the same molecule, the viability, T/C [7] was 51.7%, the viability, T/C (second compound 1 µM, first compound 0.0999 µM) was 20.3% and the viability, T/C [8] was 21.7%. The viability, T/C (second compound 3.16 µM, first compound 0.000999 µM) was 98.7%, the viability, T/C (second compound 3.16 µM, first compound 0.00316 µM) was 82.4% and the viability, T/C (second compound 3.16 µM, first compound 0.00999 µM) was 83%. For the same molecule, the viability, T/C [9] was 47.7%, the viability, T/C (second compound 3.16 µM, first compound 0.0999 µM) was 27.6% and the viability, T/C [10] was 23.4%. It also gave a viability, T/C (second compound 10 µM, first compound 0.000999 µM) of 83.9%, a viability, T/C (second compound 10 µM, first compound 0.00316 µM) of 71.8% and a viability, T/C (second compound 10 µM, first compound 0.00999 µM) of 61.5%. For the same molecule, the viability, T/C [11] was 53.6%, the viability, T/C (second compound 10 µM, first compound 0.0999 µM) was 31% and the viability, T/C [12] was 25.7%.
With C=CCn1c(=O)c2cnc(Nc3ccc(N4CCN(C)CC4)cc3)nc2n1-c1cccc(C(C)(C)O)n1 + CN(C)c1ccc(Nc2c3ccc(NC(=O)CCN4CCCC4)cc3nc3cc(NC(=O)CCN4CCCC4)ccc23)cc1 the IC50 (second compound 0.0316 µM) was 433 nM, the IC50 (second compound 0.1 µM) was 350 nM and the IC50 (second compound 0.316 µM) was 399 nM. It also gave an IC50 (second compound 1 µM) of 365 nM, an IC50 (second compound 3.16 µM) of 423 nM and an IC50 (second compound 10 µM) of 431 nM. For the same molecule, the viability, T/C [1] was 109%, the viability, T/C (second compound 0.0316 µM, first compound 0.1 µM) was 89.4% and the viability, T/C [2] was 65.3%. The viability, T/C (second compound 0.0316 µM, first compound 1 µM) was 16.2%, the viability, T/C (second compound 0.0316 µM, first compound 3.16 µM) was 7.05% and the viability, T/C (second compound 0.0316 µM, first compound 10 µM) was 8.82%. It also gave a viability, T/C [3] of 108%, a viability, T/C (second compound 0.1 µM, first compound 0.1 µM) of 98.7% and a viability, T/C [4] of 51.8%. The viability, T/C (second compound 0.1 µM, first compound 1 µM) was 19.7%, the viability, T/C (second compound 0.1 µM, first compound 3.16 µM) was 6.15% and the viability, T/C (second compound 0.1 µM, first compound 10 µM) was 9.87%. For the same molecule, the viability, T/C [5] was 99.4%, the viability, T/C (second compound 0.316 µM, first compound 0.1 µM) was 90.7% and the viability, T/C [6] was 59.2%. For the same molecule, the viability, T/C (second compound 0.316 µM, first compound 1 µM) was 15.8%, the viability, T/C (second compound 0.316 µM, first compound 3.16 µM) was 6.5% and the viability, T/C (second compound 0.316 µM, first compound 10 µM) was 9.33%. The viability, T/C [7] was 82.9%, the viability, T/C (second compound 1 µM, first compound 0.1 µM) was 89.5% and the viability, T/C [8] was 55.6%. It also gave a viability, T/C (second compound 1 µM, first compound 1 µM) of 11.3%, a viability, T/C (second compound 1 µM, first compound 3.16 µM) of 7.68% and a viability, T/C (second compound 1 µM, first compound 10 µM) of 9.81%. The viability, T/C [9] was 85.2%, the viability, T/C (second compound 3.16 µM, first compound 0.1 µM) was 83.2% and the viability, T/C [10] was 61.9%. The viability, T/C (second compound 3.16 µM, first compound 1 µM) was 14.7%, the viability, T/C (second compound 3.16 µM, first compound 3.16 µM) was 8.4% and the viability, T/C (second compound 3.16 µM, first compound 10 µM) was 12.1%. For the same molecule, the viability, T/C [11] was 71.4%, the viability, T/C (second compound 10 µM, first compound 0.1 µM) was 78.3% and the viability, T/C [12] was 57.8%. It also gave a viability, T/C (second compound 10 µM, first compound 1 µM) of 25.7%, a viability, T/C (second compound 10 µM, first compound 3.16 µM) of 11.2% and a viability, T/C (second compound 10 µM, first compound 10 µM) of 10.8%.

Source: PubChem BioAssay AID2060508 (Molecular Pharmacology Branch, DTP, NCI, 2025)
